# Assay results from ChEMBL document CHEMBL1201862, “PubChem BioAssay data set” (2004).
# The source made the active and inactive calls.
# Tests used:
# [1] = luciferase reporter signal suppression in cells – H4 neuroglioma cells, luminescence, dose response (AID 1990); type: functional, cell-based
# [2] = alpha-synuclein stem-loop luciferase translation blockers – H4 neuroglioma cells, luminescence, confirmation (AID 1988); type: functional, cell-based
# [3] = Luminescence Cell-Based Dose Response HTS to Identify Inhibitors of 5'UTR Stem-Loop Driven Prion Protein mRNA Translation in H4 Neuroglioblastoma Cells. [Related pubchem assays: 1827 (Project Summary), 1813 (Primary HTS)]; type: functional
# Cytochrome P450 2D6 = Cytochrome P450 2D6 (Homo sapiens, UniProt P10635);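 further: CYP2D6 member of a cytochrome P450 panel assay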
# Cytochrome P450 2D6, sequence (P10635 whole entry): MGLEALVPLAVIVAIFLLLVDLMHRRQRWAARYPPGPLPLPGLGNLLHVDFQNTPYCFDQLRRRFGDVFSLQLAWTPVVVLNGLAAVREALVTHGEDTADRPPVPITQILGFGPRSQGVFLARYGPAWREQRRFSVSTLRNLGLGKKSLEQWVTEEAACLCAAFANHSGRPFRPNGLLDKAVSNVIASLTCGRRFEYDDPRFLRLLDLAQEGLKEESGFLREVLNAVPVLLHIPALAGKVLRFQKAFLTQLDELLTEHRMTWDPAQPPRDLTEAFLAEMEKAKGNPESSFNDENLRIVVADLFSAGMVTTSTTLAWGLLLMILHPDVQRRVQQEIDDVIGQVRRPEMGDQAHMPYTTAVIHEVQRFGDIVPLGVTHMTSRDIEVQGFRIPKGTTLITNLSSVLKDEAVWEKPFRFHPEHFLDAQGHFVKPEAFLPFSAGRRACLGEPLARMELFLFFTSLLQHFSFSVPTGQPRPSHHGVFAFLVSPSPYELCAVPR
# Cytochrome P450 2C19 = Cytochrome P450 2C19 (Homo sapiens, UniProt P33261); assay: Cytochrome panel assay with activity outcomes. Panel member name: p450-cyp2c19 Compounds with AC50 equal or less than 10 uM are considered active; type: functional; conditions: read-out: AC50
# Cytochrome P450 2C19, sequence (P33261 whole entry): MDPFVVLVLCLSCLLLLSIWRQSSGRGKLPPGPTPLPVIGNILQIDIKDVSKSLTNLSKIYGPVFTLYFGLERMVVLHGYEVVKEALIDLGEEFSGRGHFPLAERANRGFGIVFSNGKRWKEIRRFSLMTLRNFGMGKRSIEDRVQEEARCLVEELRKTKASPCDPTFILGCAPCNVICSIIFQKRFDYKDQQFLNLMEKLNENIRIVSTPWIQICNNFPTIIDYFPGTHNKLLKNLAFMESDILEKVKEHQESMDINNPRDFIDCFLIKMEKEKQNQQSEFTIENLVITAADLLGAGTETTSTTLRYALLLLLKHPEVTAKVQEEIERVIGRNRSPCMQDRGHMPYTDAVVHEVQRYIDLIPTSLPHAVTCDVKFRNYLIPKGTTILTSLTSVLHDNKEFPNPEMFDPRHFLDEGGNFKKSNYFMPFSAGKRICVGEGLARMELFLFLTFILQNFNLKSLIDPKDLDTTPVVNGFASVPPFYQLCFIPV
# Cytochrome P450 3A4 = Cytochrome P450 3A4 (Homo sapiens, UniProt P08684);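 further: CYP3A4 tested as one member of a cytochrome P450 panel screen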
# Cytochrome P450 3A4, sequence (P08684 whole entry): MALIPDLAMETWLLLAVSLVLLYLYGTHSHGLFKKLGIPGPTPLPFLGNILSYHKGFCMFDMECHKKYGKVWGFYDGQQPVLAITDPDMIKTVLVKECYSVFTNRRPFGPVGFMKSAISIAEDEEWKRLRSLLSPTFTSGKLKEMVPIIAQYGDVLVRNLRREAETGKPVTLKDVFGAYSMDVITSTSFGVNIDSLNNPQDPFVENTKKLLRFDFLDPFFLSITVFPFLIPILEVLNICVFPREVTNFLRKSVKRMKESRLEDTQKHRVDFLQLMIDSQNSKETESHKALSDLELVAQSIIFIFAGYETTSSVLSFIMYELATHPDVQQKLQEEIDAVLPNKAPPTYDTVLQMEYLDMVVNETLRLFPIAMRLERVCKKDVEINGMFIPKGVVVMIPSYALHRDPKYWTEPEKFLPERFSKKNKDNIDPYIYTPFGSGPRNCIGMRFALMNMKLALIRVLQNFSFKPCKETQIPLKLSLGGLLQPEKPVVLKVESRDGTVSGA
# [4] = NIH-3T3 fibroblast cytotoxicity, dose response, cytotoxicity control, cell-based, fluorescence, Alamar Blue, secondary assay (AID 2327); type: functional;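 further: NIH-3T3 mouse fibroblasts cultured with fluconazole at 8 µg/mL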
# Cytochrome P450 2C9 = Cytochrome P450 2C9 (Homo sapiens, UniProt P11712)
# Cytochrome P450 2C9, sequence (P11712 whole entry): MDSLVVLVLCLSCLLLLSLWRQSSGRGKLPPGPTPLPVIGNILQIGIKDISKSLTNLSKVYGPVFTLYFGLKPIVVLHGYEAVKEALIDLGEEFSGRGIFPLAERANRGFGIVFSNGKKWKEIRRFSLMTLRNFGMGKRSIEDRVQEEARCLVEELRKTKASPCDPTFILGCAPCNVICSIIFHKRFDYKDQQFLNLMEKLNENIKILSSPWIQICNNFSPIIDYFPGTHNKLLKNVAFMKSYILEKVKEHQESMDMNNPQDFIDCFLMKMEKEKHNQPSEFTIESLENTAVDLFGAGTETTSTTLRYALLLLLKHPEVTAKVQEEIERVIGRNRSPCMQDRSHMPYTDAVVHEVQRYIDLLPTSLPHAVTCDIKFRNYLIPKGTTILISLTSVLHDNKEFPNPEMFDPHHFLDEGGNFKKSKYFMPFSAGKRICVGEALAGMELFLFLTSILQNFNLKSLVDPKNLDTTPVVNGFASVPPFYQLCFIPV
# [5] = Luminescence Cell-Based Dose Confirmation HTS to Identify Inhibitors of Platelet Dense Granule Release. [Related pubchem assays: 1663 (Primary HTS), 1678 (Summary of Project)]; type: functional
# [6] = target: Luciferin 4-monooxygenase (Photinus pyralis, UniProt P08659); assay: inhibition of purified Photinus pyralis luciferase – biochemical, luminescence, dose response (AID 1891)
# Luciferin 4-monooxygenase, sequence (P08659 whole entry): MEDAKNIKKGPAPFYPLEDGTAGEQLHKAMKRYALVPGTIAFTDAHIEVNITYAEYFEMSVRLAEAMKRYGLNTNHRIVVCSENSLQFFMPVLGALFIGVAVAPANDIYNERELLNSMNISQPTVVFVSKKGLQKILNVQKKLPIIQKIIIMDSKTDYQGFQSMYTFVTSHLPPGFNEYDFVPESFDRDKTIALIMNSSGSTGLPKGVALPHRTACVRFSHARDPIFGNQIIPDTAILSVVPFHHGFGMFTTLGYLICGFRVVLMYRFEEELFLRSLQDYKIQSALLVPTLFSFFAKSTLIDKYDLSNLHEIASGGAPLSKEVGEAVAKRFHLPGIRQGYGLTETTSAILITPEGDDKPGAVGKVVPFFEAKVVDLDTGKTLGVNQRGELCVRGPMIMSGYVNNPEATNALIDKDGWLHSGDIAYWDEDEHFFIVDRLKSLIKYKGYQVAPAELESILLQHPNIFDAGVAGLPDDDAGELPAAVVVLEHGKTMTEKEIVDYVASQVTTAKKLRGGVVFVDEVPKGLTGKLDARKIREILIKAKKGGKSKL
# Cytochrome P450 1A2 = target: T1, Cytochrome P450 1A2 (Homo sapiens, UniProt P05177);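 further: PubChem cytochrome P450 panel assay, CYP1A2 panel member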
# T1 sequence (P05177 whole entry): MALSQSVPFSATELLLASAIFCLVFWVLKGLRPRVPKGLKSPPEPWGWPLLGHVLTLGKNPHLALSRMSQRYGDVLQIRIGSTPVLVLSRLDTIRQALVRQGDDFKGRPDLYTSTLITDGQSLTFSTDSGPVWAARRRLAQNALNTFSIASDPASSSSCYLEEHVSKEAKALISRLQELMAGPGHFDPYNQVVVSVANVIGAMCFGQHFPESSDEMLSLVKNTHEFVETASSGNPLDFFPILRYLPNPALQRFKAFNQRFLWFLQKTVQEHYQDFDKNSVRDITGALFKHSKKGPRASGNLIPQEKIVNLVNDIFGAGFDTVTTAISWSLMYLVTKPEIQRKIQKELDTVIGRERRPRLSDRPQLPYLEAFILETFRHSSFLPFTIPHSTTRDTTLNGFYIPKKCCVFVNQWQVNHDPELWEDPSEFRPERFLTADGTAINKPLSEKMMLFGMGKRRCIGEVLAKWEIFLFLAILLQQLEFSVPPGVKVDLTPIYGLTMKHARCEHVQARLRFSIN
# [7] = target: T2, Corticotropin-releasing factor receptor 2/Corticotropin-releasing factor-binding protein (Homo sapiens, UniProt P24387+Q13324); assay: activators of CRF receptor 2 with binding protein – uHTS hits, confirmation (AID 602473); type: functional; conditions: read-out: EC50_Mean
# T2 sequence (Q13324 whole entry): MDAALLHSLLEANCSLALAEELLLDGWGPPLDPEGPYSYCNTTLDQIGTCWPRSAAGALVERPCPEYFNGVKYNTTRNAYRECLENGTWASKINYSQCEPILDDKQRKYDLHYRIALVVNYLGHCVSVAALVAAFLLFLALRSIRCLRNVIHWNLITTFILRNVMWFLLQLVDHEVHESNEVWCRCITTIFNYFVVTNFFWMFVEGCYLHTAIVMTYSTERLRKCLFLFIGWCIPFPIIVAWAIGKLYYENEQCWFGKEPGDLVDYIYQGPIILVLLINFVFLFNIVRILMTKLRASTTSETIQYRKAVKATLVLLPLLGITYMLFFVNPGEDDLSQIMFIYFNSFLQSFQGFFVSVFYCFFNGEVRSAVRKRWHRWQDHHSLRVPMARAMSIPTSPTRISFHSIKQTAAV
# T2 sequence (P24387 whole entry): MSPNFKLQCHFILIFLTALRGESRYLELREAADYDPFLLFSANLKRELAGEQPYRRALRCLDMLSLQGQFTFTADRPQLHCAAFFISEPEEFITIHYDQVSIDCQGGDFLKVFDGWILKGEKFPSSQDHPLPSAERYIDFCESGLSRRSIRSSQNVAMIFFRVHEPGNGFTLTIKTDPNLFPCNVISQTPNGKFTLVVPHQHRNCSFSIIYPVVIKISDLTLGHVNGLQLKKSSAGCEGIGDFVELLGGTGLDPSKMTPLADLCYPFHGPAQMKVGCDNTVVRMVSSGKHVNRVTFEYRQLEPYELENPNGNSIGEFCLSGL
# [8] = target: T2, Corticotropin-releasing factor receptor 2/Corticotropin-releasing factor-binding protein; assay: Dose Response confirmation of uHTS hits for small molecule antagonists of the CRF-binding protein and CRF-R2 receptor complex.; type: functional; conditions: read-out: IC50_Mean
# [9] = Luminescence Cell-Based Dose Confirmation HTS to Identify Activators of 5'UTR Stem-Loop Driven Alpha-Synuclein mRNA Translation in H4 Neuroglioblastoma Cells. [Related pubchem assays: 1829 (Project Summary), 1814 (Primary HTS)]; type: functional
# [10] = Luminescence Cell-Based Dose Response HTS to Identify Activators of Luciferase Translation or Activity in H4 […] Cells. [Related pubchem assays: 1829 (Project Summary), 1814 (Primary HTS)]; type: functional
# H4 = assay: Luminescence Cell-Based Dose Response HTS to Identify Activators of 5'UTR Stem-Loop Driven Prion Protein mRNA Translation in H4 Neuroglioblastoma Cells. [Related pubchem assays: 1829 (Project Summary), 1814 (Primary HTS)]; type: functional; conditions: Homo sapiens
# INS1 = assay: INS-1E survival protection against cytokine death – cell-based, luminescence, retest, dose response (AID 449756); type: functional; conditions: Rattus norvegicus;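 further: cell death triggered by IL-1 beta plus TNF-alpha plus IFN-gamma mixture; protective hits raise ATP signal compared with cytokine alone wells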
# Paired box protein Pax-8 = Paired box protein Pax-8 (Homo sapiens, UniProt Q06710); assay: PAX8 transcriptional activity inhibition in RMG-I – RMG-I cells, luciferase, cherry-pick, dose response (AID 687027); type: functional, cell-based;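 further: luciferase reporter driven by Pax8 target thyroperoxidase promoter measured by SteadyGlo luminescence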
# Paired box protein Pax-8, sequence (Q06710 whole entry): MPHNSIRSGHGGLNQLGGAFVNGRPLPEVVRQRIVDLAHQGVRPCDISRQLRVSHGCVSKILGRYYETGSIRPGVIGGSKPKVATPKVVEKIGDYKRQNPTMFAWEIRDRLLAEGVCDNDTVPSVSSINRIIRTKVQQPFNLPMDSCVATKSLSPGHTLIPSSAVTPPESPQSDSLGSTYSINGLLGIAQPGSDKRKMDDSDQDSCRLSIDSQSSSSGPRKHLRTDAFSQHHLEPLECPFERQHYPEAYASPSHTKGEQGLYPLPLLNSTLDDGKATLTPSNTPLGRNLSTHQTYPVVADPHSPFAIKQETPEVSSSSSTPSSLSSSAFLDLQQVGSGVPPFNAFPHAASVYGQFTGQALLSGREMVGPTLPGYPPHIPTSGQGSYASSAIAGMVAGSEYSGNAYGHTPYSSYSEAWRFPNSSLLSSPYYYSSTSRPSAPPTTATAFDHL
smiles,measurement,setting,value
CC1C(C#N)=C(N)OC2=C1C(=O)CC(C)(C)C2 (stereo unspecified),EC50,[1],> 120 µM (not active)
same,EC50,[2],19.8 µM (active)
same,EC50,[3],> 120 µM (not active)
CC(NC(=O)c1cccc(F)c1)C(c1cccs1)N1CCN(C)CC1 (stereo unspecified),AC50,Cytochrome P450 2D6,15.8 µM (inconclusive)
same,AC50,Cytochrome P450 2C19,31.6 µM (inconclusive)
same,AC50,Cytochrome P450 3A4,15.8 µM (inconclusive)
Cc1cc(Cl)ccc1OCc1cn2cccnc2n1,EC50,[4],> 160 µM (inactive)
COc1ccc2c(c1)O[C@@H](c1cccc(C(F)(F)F)c1)[C@H](O)C2=O,EC50,[1],> 120 µM (not active)
same,EC50,[2],> 120 µM (not active)
same,EC50,[3],> 120 µM (not active)
COCCn1c(=O)c(-c2ccc(F)cc2)nc2cnc(N(C)C)nc21,AC50,Cytochrome P450 2D6,0.631 µM (inconclusive)
same,AC50,Cytochrome P450 2C9,12.6 µM (inconclusive)
CN(C)S(=O)(=O)c1cccc(NC(=O)CSc2nnnn2-c2ccccc2)c1,EC50,[5],> 112 µM (not active)
same,EC50,[6],> 112 µM (not active)
FC(F)(F)c1ccccc1-c1cc(NCCN2CCOCC2)ncn1,AC50,Cytochrome P450 2D6,39.8 µM (inconclusive)
same,AC50,Cytochrome P450 1A2,12.6 µM (inconclusive)
CC(C)CNC(=O)COc1ccccc1[N+](=O)[O-],EC50,[5],18.7 µM (active)
same,EC50,[6],> 112 µM (not active)
COc1ccc(OC)c(-c2cc(C(=O)O)c3cc4ccccc4cc3n2)c1,AC50,Cytochrome P450 2C9,3.16 µM (inconclusive)
same,EC50,[7],> 53 µM (inactive)
same,IC50,[8],> 47.1 µM (inactive)
Cc1ccc(Cl)cc1NC(=O)c1ccc(Cn2cc(Cl)cn2)cc1,EC50,[1],14.4 µM (active)
same,EC50,[2],12.2 µM (active)
same,EC50,[3],13.7 µM (active)
O=C(NCCc1csc(-c2cccnc2)n1)c1cccs1,EC50,[5],> 112 µM (not active)
same,EC50,[6],> 112 µM (not active)
COc1cccc(-c2noc(C3CCCN(C(=O)c4ccccc4OC)C3)n2)c1 (stereo unspecified),EC50,[5],> 112 µM (not active)
same,EC50,[6],> 112 µM (not active)
O=C(Oc1ccc([N+](=O)[O-])cc1)N1CCC(N2CCCCC2)CC1,AC50,Cytochrome P450 2D6,39.8 µM (inconclusive)
same,AC50,Cytochrome P450 1A2,20 µM (inconclusive)
Cc1cc(NC(=O)c2c(F)cccc2F)n(-c2nc3ccccc3[nH]2)n1,AC50,Cytochrome P450 2D6,39.8 µM (inconclusive)
same,AC50,Cytochrome P450 2C9,4.47 µM (inconclusive)
same,AC50,Cytochrome P450 3A4,3.55 µM (inconclusive)
CCN(CC)c1nc(O)nc(N(CC)CC)n1,EC50,[1],> 120 µM (not active)
same,EC50,[2],44.7 µM (active)
same,EC50,[3],> 120 µM (not active)
COC(=O)C1(C)CN(S(=O)(=O)c2ccc(C)cc2)c2cc(OC)ccc2C1=O (stereo unspecified),EC50,[5],> 112 µM (not active)
same,EC50,[6],> 112 µM (not active)
CCOC(=O)c1ccc(NC(=O)CSc2nc3c(c(=O)n2C)SC(C)C3)cc1 (stereo unspecified),EC50,[5],> 112 µM (not active)
same,EC50,[6],> 112 µM (not active)
C=CCOc1c(CNc2cccc(C(=O)O)c2)cccc1OCC,EC50,[7],> 53 µM (inactive)
same,IC50,[8],> 47.1 µM (inactive)
CC1(C)Cc2c(C#N)c(NCC3CCCO3)nc(-c3ccco3)c2CO1 (stereo unspecified),EC50,[7],> 53 µM (inactive)
same,IC50,[8],> 47.1 µM (inactive)
COCCn1c(SCc2nnc(-c3ccccc3)o2)nc2sc3c(c2c1=O)CCC3,EC50,[7],> 53 µM (inactive)
same,IC50,[8],> 47.1 µM (inactive)
COc1cc(C#Cc2c(-c3ccccc3)n(C)c3ccccc23)cc(OC)c1,EC50,[7],> 53 µM (inactive)
same,IC50,[8],> 47.1 µM (inactive)
Cc1nc2sccn2c(=O)c1S(=O)(=O)N1CCN(c2cccc(Cl)c2)CC1,EC50,[5],> 112 µM (not active)
same,EC50,[6],> 112 µM (not active)
CC(C)(C)c1ccc(Oc2ccc(NC(=O)c3ccccc3C(=O)O)cn2)cc1,EC50,[1],11 µM (active)
same,EC50,[2],11.6 µM (active)
same,EC50,[3],12 µM (active)
Cc1cc(=O)oc2cc(OCCSCCN3CCOCC3)ccc12,EC50,[5],> 112 µM (not active)
same,EC50,[6],> 112 µM (not active)
COC(=O)/C=C1/SC(NNC(=O)c2ccc(Cl)cc2Cl)=NC1=O,EC50,[7],> 53 µM (inactive)
same,IC50,[8],> 47.1 µM (inactive)
O=C(COc1ccccc1C(=O)c1cnn(-c2ccccc2)c1)Nc1ccc2ccccc2c1,EC50,[9],5.67 µM (active)
same,EC50,[10],6.97 µM (active)
same,EC50,[7],> 53 µM (inactive)
same,IC50,[8],> 47.1 µM (inactive)
same,EC50,H4,7.44 µM (active)
c1ccc(-[n+]2nc(Nc3cccc4ccccc34)sc2-c2c3ccccc3cc3ccccc23)cc1,AC50,INS1,3.17 µM (active)
CC(C)(C)C1CCc2c(sc(NC(=O)c3cc(C4CC4)on3)c2C#N)C1 (stereo unspecified),EC50,[5],23.1 µM (active)
same,EC50,[6],> 112 µM (not active)
COc1ccccc1Nc1ccc(S(=O)(=O)N2CCCCC2)cc1[N+](=O)[O-],EC50,[7],> 53 µM (inactive)
same,IC50,[8],> 47.1 µM (inactive)
Nc1nnc(SCc2ccc(Cl)cc2)s1,EC50,[5],> 112 µM (not active)
same,EC50,[6],> 112 µM (not active)
Cc1ccccc1N1CCN(C2CCCN(C(=O)c3cn4c(C)cccc4n3)C2)CC1 (stereo unspecified),EC50,[7],> 53 µM (inactive)
same,IC50,[8],> 47.1 µM (inactive)
CC(=O)OC(C)(C)/C=C/C(=O)C(C)(O)C1C(O)CC2(C)C3CC=C4C(CC(O)C(=O)C4(C)C)C3(C)C(=O)CC12C (stereo unspecified),AC50,Paired box protein Pax-8,< 0.26 µM (active)
CCOC(=O)C(NCCc1ccc(F)cc1)(NC(=O)CC)C(F)(F)F (stereo unspecified),AC50,INS1,> 260 µM (inactive)
CN(C)P(=O)(NC(=O)c1cccn1C)N(C)C,EC50,[7],> 53 µM (inactive)
same,IC50,[8],> 47.1 µM (inactive)
C=CCO/C(O)=C1\C(C)=NC2(O)c3ccccc3C(=O)C12O (stereo unspecified),EC50,[7],> 53 µM (inactive)
same,IC50,[8],> 47.1 µM (inactive)
Cc1ccc(NC(=O)COC(=O)c2cccnc2Cl)cc1S(=O)(=O)N1CCOCC1,EC50,[7],> 53 µM (inactive)
same,IC50,[8],> 47.1 µM (inactive)
C[C@@H]1CN([C@@H](C)CO)C(=O)c2cc(NS(=O)(=O)c3ccccc3)ccc2O[C@@H](C)CCCCO[C@@H]1CN(C)Cc1ccc(C(F)(F)F)cc1,AC50,Paired box protein Pax-8,5.71 µM (active)
COc1ccc(NC(=O)Nc2ccc3c(c2)C(=O)N([C@@H](C)CO)C[C@@H](C)[C@@H](CN(C)CC2CCCCC2)OCCCC[C@@H](C)O3)cc1,AC50,Paired box protein Pax-8,14.5 µM (active)
